Earlier results as cited in US20190281871A1, “CHICORY PRODUCTS CONTAINING CANNABINOIDS” (Full Spectrum Laboratories Ltd, priority 2016, published 2019).

What was measured:
5-HT1A receptor = target: T1, 5-HT1A receptor (Homo sapiens, UniProt P08908)
T1 sequence (P08908 1-422): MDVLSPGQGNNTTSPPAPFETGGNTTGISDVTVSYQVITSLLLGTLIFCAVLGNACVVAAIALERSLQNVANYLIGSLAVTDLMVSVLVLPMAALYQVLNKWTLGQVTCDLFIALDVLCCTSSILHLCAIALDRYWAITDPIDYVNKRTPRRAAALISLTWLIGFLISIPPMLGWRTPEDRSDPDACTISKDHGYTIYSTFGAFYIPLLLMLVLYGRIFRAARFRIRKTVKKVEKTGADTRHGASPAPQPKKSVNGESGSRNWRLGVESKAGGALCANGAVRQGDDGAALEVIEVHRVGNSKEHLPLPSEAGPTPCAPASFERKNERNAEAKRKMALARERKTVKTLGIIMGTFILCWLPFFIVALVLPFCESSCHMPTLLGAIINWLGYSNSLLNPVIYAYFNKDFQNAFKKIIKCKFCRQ

CB1 receptor = CB1 receptor (Homo sapiens, UniProt P21554)
Sequence of CB1 receptor (P21554 whole entry): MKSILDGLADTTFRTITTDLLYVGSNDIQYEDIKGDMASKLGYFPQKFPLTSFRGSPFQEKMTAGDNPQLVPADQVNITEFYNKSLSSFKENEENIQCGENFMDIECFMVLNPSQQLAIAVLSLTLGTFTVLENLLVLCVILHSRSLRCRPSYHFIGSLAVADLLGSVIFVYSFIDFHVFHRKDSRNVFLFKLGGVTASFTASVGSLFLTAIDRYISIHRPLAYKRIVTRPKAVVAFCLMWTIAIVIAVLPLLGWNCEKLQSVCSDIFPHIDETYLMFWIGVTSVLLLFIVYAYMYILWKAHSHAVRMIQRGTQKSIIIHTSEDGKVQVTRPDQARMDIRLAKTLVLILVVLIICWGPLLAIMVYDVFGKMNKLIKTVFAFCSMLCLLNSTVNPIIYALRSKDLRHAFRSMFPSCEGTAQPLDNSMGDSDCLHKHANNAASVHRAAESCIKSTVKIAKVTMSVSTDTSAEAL

SMILES: CCCCCc1cc(O)c(C/C=C(\C)CCC=C(C)C)c(O)c1 [CBG, cannabigerol]
- α2-adrenergic receptor agonist affinity (α2-adrenergic receptor): high affinity
- 5-HT1A receptor antagonist affinity (5-HT1A receptor): moderate affinity
- CB1 receptor antagonist affinity (CB1 receptor): low affinity
